Results: patent publication US7417156B2, “Orally active, antimalarial, anticancer, artemisinin-derived trioxane dimers” (Johns Hopkins University, priority 2002, dated 2008)
Like-named read-outs stand apart in the source and are kept apart here.

Legend:
OVCAR-3 = assay: NCI 60 cell line panel screen (SRB); format: cell-based, human; settings: for Log10LC50 / Log10TGI50: OVCAR-3 (Ovarian Cancer); for Log10LC50: LC50: PG=−50; for Log10TGI50: TGI: PG=0; for Log10GI50: Ovarian Cancer, OVCAR-3
MCF7 = assay: NCI 60 cell line panel screen (SRB); format: cell-based, human; settings: for Log10GI50: Breast Cancer, MCF7; for Log10LC50 / Log10TGI50: MCF7 (Breast Cancer); for Log10LC50: LC50: PG=−50; for Log10TGI50: TGI: PG=0
UO-31 = assay: NCI 60 cell line panel screen (SRB); format: cell-based, human; settings: for Log10GI50: Renal Cancer, UO-31; for Log10LC50 / Log10TGI50: UO-31 (Renal Cancer); for Log10LC50: LC50: PG=−50; for Log10TGI50: TGI: PG=0
NCI-H522 = assay: NCI 60 cell line panel screen (SRB); format: cell-based, human; settings: for Log10TGI50: NCI-H522 (Non-Small Cell Lung Cancer), TGI: PG=0; for Log10LC50: NCI-H-522 (Non-Small Cell Lung Cancer), LC50: PG=−50; for Log10GI50: Non-Small Cell Lung Cancer, NCI-H522
IGROVI = assay: NCI 60 cell line panel screen (SRB); format: cell-based, human; settings: for Log10LC50 / Log10TGI50: IGROVI (Ovarian Cancer); for Log10LC50: LC50: PG=−50; for Log10TGI50: TGI: PG=0
HCT-116 = assay: NCI 60 cell line panel screen (SRB); format: cell-based, human; settings: for Log10GI50: Colon Cancer, HCT-116; for Log10LC50 / Log10TGI50: HCT-116 (Colon Cancer); for Log10LC50: LC50: PG=−50; for Log10TGI50: TGI: PG=0
SF-268 = assay: NCI 60 cell line panel screen (SRB); format: cell-based, human; settings: for Log10GI50: CNS Cancer, SF-268; for Log10LC50 / Log10TGI50: SF-268 (CNS Cancer); for Log10LC50: LC50: PG=−50; for Log10TGI50: TGI: PG=0
NCI-H322M = format: cell-based
MDA-MB231/ATCC = assay: NCI 60 cell line panel screen (SRB); format: cell-based, human; settings: for Log10GI50: Breast Cancer, MDA-MB231/ATCC; for Log10LC50 / Log10TGI50: MDA-MB231/ATCC (Breast Cancer); for Log10LC50: LC50: PG=−50; for Log10TGI50: TGI: PG=0
MDA-MB-435 = assay: NCI 60 cell line panel screen (SRB); format: cell-based, human; settings: for Log10LC50 / Log10TGI50: MDA-MB-435 (Breast Cancer); for Log10LC50: LC50: PG=−50; for Log10TGI50: TGI: PG=0
[1] = test system: chloroquine-sensitive P. falciparum (NF54); assay: Antimalarial activity in vitro, [3H]hypoxanthine incorporation; format: cell-based; settings: Table I; NF54 strain; read-out: IC50
HCT-15 = assay: NCI 60 cell line panel screen (SRB); format: cell-based, human; settings: for Log10GI50: Colon Cancer, HCT-15; for Log10LC50 / Log10TGI50: HCT-15 (Colon Cancer); for Log10LC50: LC50: PG=−50; for Log10TGI50: TGI: PG=0
A549/ATCC = assay: NCI 60 cell line panel screen (SRB); format: cell-based, human; settings: for Log10LC50 / Log10TGI50: A549/ATCC (Non-Small Cell Lung Cancer); for Log10LC50: LC50: PG=−50; for Log10TGI50: TGI: PG=0; for Log10GI50: Non-Small Cell Lung Cancer, A549/ATCC
M14 = assay: NCI 60 cell line panel screen (SRB); format: cell-based, human; settings: for Log10LC50: M14 (Melanoma), LC50: PG=−50; for Log10TGI50: M-14 (Melanoma), TGI: PG=0; for Log10GI50: Melanoma, M14
BT-549 = assay: NCI 60 cell line panel screen (SRB); format: cell-based, human; settings: for Log10LC50 / Log10TGI50: BT-549 (Breast Cancer); for Log10LC50: LC50: PG=−50; for Log10TGI50: TGI: PG=0; for Log10GI50: Breast Cancer, BT-549
NCI/ADR-RES = assay: NCI 60 cell line panel screen (SRB); format: cell-based, human; settings: for Log10GI50: Breast Cancer, NCI/ADR-RES; for Log10LC50 / Log10TGI50: NCI/ADR-RES (Breast Cancer); for Log10LC50: LC50: PG=−50; for Log10TGI50: TGI: PG=0
60 cell line panel = format: cell-based; settings: for Log10LC50 Delta / Log10LC50 Range / Log10TGI50 Delta / Log10TGI50 Range: 60 cell line panel; for growth inhibition in words: colon cancer KM12, ovarian cancer OVCAR 3, breast cancer MDA-MB-435; for Log10GI50 MG MID: mean over panel; for Log10LC50 MG MID / Log10TGI50 MG MID: mean value over the 60 cell line panel
PC-3 = assay: NCI 60 cell line panel screen (SRB); format: cell-based, human; settings: for Log10LC50 / Log10TGI50: PC-3 (Prostate Cancer); for Log10LC50: LC50: PG=−50; for Log10TGI50: TGI: PG=0; for Log10GI50: Prostate Cancer, PC-3
HT29 = assay: NCI 60 cell line panel screen (SRB); format: cell-based, human; settings: for Log10GI50: Colon Cancer, HT29; for Log10LC50 / Log10TGI50: HT29 (Colon Cancer); for Log10LC50: LC50: PG=−50; for Log10TGI50: TGI: PG=0
MALME-3M = assay: NCI 60 cell line panel screen (SRB); format: cell-based, human; settings: for Log10LC50 / Log10TGI50: MALME-3M (Melanoma); for Log10LC50: LC50: PG=−50; for Log10TGI50: TGI: PG=0; for Log10GI50: Melanoma, MALME-3M

## CC1CCC2C(C)C(CC(COC(=O)CCC(=O)O)CC3OC4OC5(C)CCC6C(C)CCC(C3C)C46OO5)OC3OC4(C)CCC1C32OO4 (stereo not shown) [Compound 8a, bis-trioxane primary succinate monoester]
OVCAR-3
  Log10LC50: >−4.30 log10M
  Log10TGI50: −8.21 log10M
  Log10GI50: <−8.30
MCF7
  Log10GI50: <−8.30
  Log10LC50: >−4.30 log10M
  Log10TGI50: >−4.30 log10M
UO-31
  Log10GI50: −5.46
  Log10LC50: >−4.30 log10M
  Log10TGI50: >−4.30 log10M
NCI-H522
  Log10TGI50: >−4.30 log10M
  Log10LC50: >−4.30 log10M
  Log10GI50: −6.16
IGROVI
  Log10LC50: >−4.30 log10M
  Log10TGI50: >−4.30 log10M
IGROVI; Ovarian Cancer, IGROVI
  Log10GI50: −5.07
HCT-116
  Log10GI50: <−8.30
  Log10LC50: >−4.30 log10M
  Log10TGI50: >−4.30 log10M
SF-268
  Log10GI50: −7.11
  Log10LC50: >−4.30 log10M
  Log10TGI50: >−4.30 log10M
NCI-H322M; NCI-H322M (Non-Small Cell Lung Cancer), TGI: PG=0
  Log10TGI50: >−4.30 log10M
NCI-H322M; Non-Small Cell Lung Cancer, NCI-H322M
  Log10GI50: −5.11
MDA-MB231/ATCC
  Log10GI50: −7.19
  Log10LC50: >−4.30 log10M
  Log10TGI50: −6.35 log10M
MDA-MB-435
  Log10LC50: >−4.30 log10M
  Log10TGI50: >−4.30 log10M
[1]
  IC50: 2 nM
HCT-15
  Log10GI50: <−8.30
  Log10LC50: >−4.30 log10M
  Log10TGI50: −5.61 log10M
A549/ATCC
  Log10LC50: >−4.30 log10M
  Log10TGI50: >−4.30 log10M
  Log10GI50: −4.42
M14
  Log10LC50: >−4.30 log10M
  Log10TGI50: >−4.30 log10M
  Log10GI50: −6.94
BT-549
  Log10LC50: >−4.30 log10M
  Log10TGI50: −7.39 log10M
  Log10GI50: −7.91
NCI/ADR-RES
  Log10GI50: −5.64
  Log10LC50: >−4.30 log10M
  Log10TGI50: >−4.30 log10M
60 cell line panel
  Log10GI50 Delta: 1.29
  Log10GI50 Range: 4.00
  Log10LC50 Delta: 0.46
  Log10LC50 Range: 0.48
  Log10TGI50 Delta: 3.26
  Log10TGI50 Range: 4.00
  growth inhibition in words: selectively and strong inhibitory
  Log10GI50 MG MID: −7.01
  Log10LC50 MG MID: −4.32 log10M
  Log10TGI50 MG MID: −5.04 log10M
PC-3
  Log10LC50: >−4.30 log10M
  Log10TGI50: >−4.30 log10M
  Log10GI50: <−8.30
HT29
  Log10GI50: <−8.30
  Log10LC50: >−4.30 log10M
  Log10TGI50: >−4.30 log10M
MALME-3M
  Log10LC50: >−4.30 log10M
  Log10TGI50: −6.82 log10M
  Log10GI50: <−8.30

## CC1CCC2C(C)C(CC(O)(CC3OC4OC5(C)CCC6C(C)CCC(C3C)C46OO5)CS(=O)(=O)c3ccc(C(=O)O)cc3)OC3OC4(C)CCC1C32OO4 (stereo not drawn) [Compound 10c, bis-trioxane β-hydroxysulfone benzoic acid]
OVCAR-3
  Log10LC50: −5.01 log10M
  Log10TGI50: <−8.30 log10M
  Log10GI50: <−8.30
MCF7
  Log10GI50: <−8.30
  Log10LC50: >−4.30 log10M
  Log10TGI50: −5.13 log10M
UO-31
  Log10GI50: −5.91
  Log10LC50: >−4.30 log10M
  Log10TGI50: >−4.30 log10M
NCI-H522
  Log10TGI50: −4.34 log10M
  Log10LC50: >−4.30 log10M
  Log10GI50: <−8.30
IGROVI
  Log10LC50: >−4.30 log10M
  Log10TGI50: >−4.30 log10M
HCT-116
  Log10GI50: <−8.30
  Log10LC50: −4.72 log10M
  Log10TGI50: −5.16 log10M
SF-268
  Log10GI50: <−8.30
  Log10LC50: −4.59 log10M
  Log10TGI50: −5.14 log10M
NCI-H322M
  Log10GI50: −6.03
  Log10TGI50: −4.98 log10M
NCI-H322M; NCI-H322M (Non-Small Cell Lung Cancer), LC50: PG=−50
  Log10LC50: −4.57 log10M
MDA-MB231/ATCC
  Log10GI50: <−8.30
  Log10LC50: −5.02 log10M
  Log10TGI50: <−8.30 log10M
MDA-MB-435; Breast Cancer, MDA-MB-435
  Log10GI50: <−8.30
MDA-MB-435
  Log10LC50: −4.60 log10M
  Log10TGI50: −5.17 log10M
[1]
  IC50: 2.4 nM
HCT-15
  Log10GI50: <−8.30
  Log10LC50: −4.70 log10M
  Log10TGI50: −5.23 log10M
A549/ATCC
  Log10LC50: >−4.30 log10M
  Log10TGI50: >−4.30 log10M
  Log10GI50: −5.28
M14
  Log10LC50: −4.42 log10M
  Log10TGI50: −4.91 log10M
  Log10GI50: <−8.30
BT-549
  Log10LC50: −4.61 log10M
  Log10TGI50: −5.54 log10M
  Log10GI50: −6.67
NCI/ADR-RES
  Log10GI50: −5.73
  Log10LC50: −4.63 log10M
  Log10TGI50: −5.09 log10M
60 cell line panel
  Log10GI50 Delta: −0.73
  Log10GI50 Range: 3.48
  Log10LC50 Delta: 1.00
  Log10LC50 Range: 1.25
  Log10TGI50 Delta: 2.79
  Log10TGI50 Range: 4.00
  growth inhibition in words: selectively and strong inhibitory
  Log10GI50 MG MID: −7.57
  Log10LC50 MG MID: −4.55 log10M
  Log10TGI50 MG MID: −5.51 log10M
PC-3
  Log10LC50: −4.62 log10M
  Log10TGI50: −5.23 log10M
  Log10GI50: <−8.30
HT29
  Log10GI50: <−8.30
  Log10LC50: >−4.30 log10M
  Log10TGI50: >−4.30 log10M
MALME-3M
  Log10LC50: −4.80 log10M
  Log10TGI50: <−8.30 log10M
  Log10GI50: <−8.30
